Measured values taken from the NIST ThermoML archive (doi:10.1016/j.tca.2013.09.034).
± gives the expanded uncertainty stated by the source.

Assay: mn = molality of the nth substance listed, in mol/kg
Details: 101 kPa, Liquid; for speed of sound: Sing-around technique in a fixed-path interferometer; for mass density: Vibrating tube method

CCCCn1cc[n+](C)c1C.[Cl-] [1-butyl-2,3-dimethylimidazolium chloride] + O
Details	mass density, 288.15 K [kg/m3]	mass density, 298.15 K [kg/m3]	mass density, 308.15 K [kg/m3]	speed of sound, 288.15 K [m/s]	speed of sound, 298.15 K [m/s]	speed of sound, 308.15 K [m/s]
m1 = 0.0354	999.41 ± 0.29	997.296 ± 0.3	994.233 ± 0.29	1471.7 ± 1.4	1502.4 ± 1.4	1525.2 ± 1.4
m1 = 0.0466	999.559 ± 0.29	997.434 ± 0.29	994.36 ± 0.29	1480.1 ± 1.4	1508.2 ± 1.4	1530.4 ± 1.4
m1 = 0.0575	999.712 ± 0.3	997.614 ± 0.3	994.516 ± 0.29	1484.9 ± 1.4	1512.1 ± 1.4	1533 ± 1.4
m1 = 0.0702	999.936 ± 0.3	997.784 ± 0.3	994.679 ± 0.29	1489.8 ± 1.4	1515.5 ± 1.4	1535.5 ± 1.4
m1 = 0.0932	1000.31 ± 0.3	998.103 ± 0.29	994.956 ± 0.29	1498 ± 1.4	1520.7 ± 1.4	1539.2 ± 1.4
m1 = 0.1164	1000.68 ± 0.3	998.419 ± 0.29	995.243 ± 0.29	1502.9 ± 1.4	1525.7 ± 1.4	1543.5 ± 1.4
m1 = 0.1401	1000.99 ± 0.3	998.698 ± 0.29	995.547 ± 0.29	1505.3 ± 1.4	1527.9 ± 1.4	1546.4 ± 1.4
m1 = 0.1635	1001.1 ± 0.3	998.836 ± 0.29	995.675 ± 0.29	1506.4 ± 1.4	1529.3 ± 1.4	1547.4 ± 1.4
m1 = 0.1862	1001.01 ± 0.3	998.743 ± 0.29	995.587 ± 0.29	1507.5 ± 1.4	1530.5 ± 1.4	1549.1 ± 1.4
m1 = 0.2082	1000.78 ± 0.3	998.556 ± 0.29	995.17 ± 0.3	1508.2 ± 1.4	1531.5 ± 1.4	1550 ± 1.4
m1 = 0.2329	1000.25 ± 0.3	998.134 ± 0.3	994.487 ± 0.3	1509.1 ± 1.4	1532.1 ± 1.4	1550.6 ± 1.4
